Measured values published in patent US12377119B2, “Natural killer cells” (IMPERIAL COLLEGE INNOVATIONS LIMITED, priority 2018, dated 2025).
Entries after “also recorded” stand apart in the source; their conditions may differ.

What was measured:
[1] = target: T1, REV-ERBα (Homo sapiens, UniProt P20393); test: Dual-luciferase Bmal-luc reporter assay in HEK293T cells transfected with REV-ERBα; format: cell-based; details: 10 μM
T1 construct: expressed in transfected cells; host or cells: HEK293T
T1 sequence (P20393 1-614): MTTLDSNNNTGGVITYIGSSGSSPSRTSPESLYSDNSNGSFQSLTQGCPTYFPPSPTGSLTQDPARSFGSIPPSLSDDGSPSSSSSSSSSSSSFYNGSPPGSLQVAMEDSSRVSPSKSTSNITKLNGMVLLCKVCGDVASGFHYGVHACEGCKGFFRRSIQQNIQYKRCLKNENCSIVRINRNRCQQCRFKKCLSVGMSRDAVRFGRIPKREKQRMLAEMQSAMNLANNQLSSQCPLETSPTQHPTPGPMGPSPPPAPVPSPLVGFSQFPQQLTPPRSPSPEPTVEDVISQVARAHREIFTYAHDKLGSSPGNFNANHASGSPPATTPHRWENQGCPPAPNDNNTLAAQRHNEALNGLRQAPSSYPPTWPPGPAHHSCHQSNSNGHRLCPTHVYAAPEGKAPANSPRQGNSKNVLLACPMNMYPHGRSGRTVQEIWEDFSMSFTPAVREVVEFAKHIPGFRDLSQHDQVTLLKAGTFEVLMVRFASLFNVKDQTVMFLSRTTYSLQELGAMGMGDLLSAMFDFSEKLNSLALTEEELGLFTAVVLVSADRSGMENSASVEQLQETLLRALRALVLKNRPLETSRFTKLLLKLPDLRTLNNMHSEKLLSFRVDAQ
Experimental: (§1) HEK293T cells were defrosted and maintained in DMEM supplemented with 10% FCS and 1% P/S at 37° C. and 5% CO2. Cells were plated in a 24-well plate (7·10^4 cells/well in 0.5 mL of DMEM+10% FCS). 24 h after seeding, cells were transfected with 100 ng of Bmal-luc, 10 ng of pRL-CMV Renilla as an internal control and 10 ng of REV-ERBα or the empty vector pcDNA3 as a control. All conditions were equalled to a total of 400 ng of DNA by using BSM. In order to prepare transfection samples, calculated amounts of DNA needed for each condition were prepared in Opti-MEM and Fugene was added in a 5:2 Fugene:DNA ratio. Mixtures were vortexed to assure homogeneity and left to incubate for 15 min at rt. Afterwards, each DNA mix was transferred into the 24-well plate containing the pre-seeded cells, with each condition repeated by triplicate. 5 h after transfection, cells were treated with compounds 2-12, AG1-AG5 or DMSO as vehicle. Solution of the compounds in DMEM were prepared at a double concentration than the final desired one, and 0.5 mL of these solutions were added to each well. 24 h after transfection, cells were lysed and luciferase activity was measured using Dual-Luciferase Reporter Assay System E2920 (Promega). To perform the experiment, cells were lysed by adding 50 μL of passive lysis buffer (PLB) (1:5 dilution) to each well and gently stirring for 30 min. Each cell lysate was transferred to a 96-well plate. 50 μL of Dual-Glo reagent were dispensed into each well, tapped gently to mix and incubated for 10 min. Luminescence of firefly luciferase was measured using a Tecan VICTOR Light Luminescent counter equipment. Then, 50 μL of Stop&Glo reagent were dispensed to quench firefly activity and activate Renilla luciferase, incubated for 10 min and measured. Firefly activity was normalized to Renilla luciferase activity. Results were analysed using Welch's corrected parametric t-test.
(§2) The method of Example 2 was repeated using Compounds 70 to 72 (generated as described in Example 1). Compounds 4, 7 and 11 (tested in Example 2) were used as a positive control for REV-ERB inhibitory activity, agonist compound AG2 (also tested in Example 2) and DMSO were also tested as comparators.
The method of Example 2 was repeated using Compounds 64 to 66, 69 and 70 to 73 (generated as described in Example 1). Once again, Compounds 4, 7 and 11 (tested in Example 2) were used as a positive control for REV-ERB inhibitory activity, agonist compound AG2 (also tested in Example 2) and DMSO were also tested as comparators.
as §2, with “16” for “70”, “19, 27, 28 and 44” for “72”, “1). Once again,” for “1).”

[2] = target: T2, REV-ERBβ (Homo sapiens, UniProt Q14995); test: Dual-luciferase Bmal-luc reporter assay in HEK293T cells transfected with REV-ERBβ; format: cell-based; details: 10 μM
T2 construct: expressed in transfected cells; host or cells: HEK293T
T2 sequence (Q14995 1-579): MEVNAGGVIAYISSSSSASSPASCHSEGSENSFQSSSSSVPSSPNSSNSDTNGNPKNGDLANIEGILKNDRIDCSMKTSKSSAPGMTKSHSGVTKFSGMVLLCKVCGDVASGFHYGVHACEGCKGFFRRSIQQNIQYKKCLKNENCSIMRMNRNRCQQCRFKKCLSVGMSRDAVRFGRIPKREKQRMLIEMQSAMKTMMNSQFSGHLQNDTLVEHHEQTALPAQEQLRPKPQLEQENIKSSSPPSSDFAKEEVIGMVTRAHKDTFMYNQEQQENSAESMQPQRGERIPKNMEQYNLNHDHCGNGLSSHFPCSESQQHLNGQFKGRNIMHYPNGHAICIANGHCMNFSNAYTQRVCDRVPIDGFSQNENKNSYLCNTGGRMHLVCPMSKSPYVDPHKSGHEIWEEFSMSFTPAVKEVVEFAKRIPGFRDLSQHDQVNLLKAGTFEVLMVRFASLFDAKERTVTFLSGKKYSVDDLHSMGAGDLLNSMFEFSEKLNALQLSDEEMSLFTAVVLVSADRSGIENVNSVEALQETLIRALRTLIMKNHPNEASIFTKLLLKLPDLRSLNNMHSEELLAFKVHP
Experimental: as §1
The method of Example 2 was repeated but with 10 ng of REV-ERBβ used in place of REV-ERBa. Compounds 4, 66, 69 and 73 were tested (generated as described in Example 1). Agonist compound AG2 and DMSO were also tested as comparators.
The method of Example 5 was repeated using Compounds 18 and 19 (generated as described in Example 1). Agonist compound AG5 and DMSO were also tested as comparators.

[3] = test system: NK cells; details: previously shown by the inventors; cited from earlier work
[4] = test system: E4bp4; details: previously shown by the inventors; cited from earlier work
[5] = FIG. 3, three independent experiments in triplicate, comparison with SR8278
[6] = FIG. 4, two independent experiments in triplicate, comparison with SR8278
[7] = FIG. 6, three independent experiments in triplicate
[8] = FIG. 8, two independent experiments in triplicate

Row | SMILES | Effect on REV-ERBα activity (Bmal-luc luciferase expression) [1, 5] | Effect on REV-ERBα activity (Bmal-luc luciferase expression) [1, 6] | Effect on REV-ERBβ activity (Bmal-luc luciferase expression) [2, 7] | Effect on REV-ERBβ activity (Bmal-luc luciferase expression) [2, 8] | further results
1 | CCOC(=O)C1Cc2ccccc2CN1C(=O)OCC (racemic) [Compound 4, Diethyl 3,4-dihydroisoquinoline-2,3(1H)-dicarboxylate] | significant increase in luciferase expression compared with SR8278; also recorded: significant antagonistic activity | significant antagonistic activity | significant antagonistic activity | – | Effect on REV-ERBα activity (Bmal-luc luciferase expression) ([1]; FIG. 7, three independent experiments in triplicate): significant antagonistic activity
2 | CCOC(=O)C1Cc2ccccc2CN1C(=O)c1ccnn1C (racemic) [Compound 18] | – | – | – | antagonistic activity | –
3 | CCOC(=O)C1Cc2ccccc2CN1C(=O)c1ccn(C)n1 (racemic) [Compound 19] | – | – | – | antagonistic activity | –
4 | CCOC(=O)C1Cc2ccccc2CN1S(=O)(=O)c1cccc2ccccc12 (stereo not shown) [AG2] | agonists | agonist | agonist | agonist | Effect on REV-ERBα activity (Bmal-luc luciferase expression) ([1]; FIG. 5, three independent experiments in triplicate): agonist
5 | CCOC(=O)C1Cc2ccccc2CN1C(=O)c1ccc(SC)s1 (stereo not shown) [SR8278] | – | – | – | – | NK cell production [3]: increases NK cell production; E4bp4 expression [4]: increases E4bp4 expression
